For data set [1], the system named is Rattus norvegicus. Put plainly: Analgesic activity in iv dosed rat Brennan's incision pain model assessed as reduction in pain measured after 15 mins. The class given is functional, organism-based. To be noted: dose 0.5-1 mg/kg.
The species named for a further data set is Homo sapiens. Put plainly: (§1) Inhibition of Fc-tagged human TrkA extracellular domain to biotinylated human NGF protein-protein interaction preincubated for 1 hr followed by NGF addition and measured after 3 hrs by ELISA. To be noted: time 4.0 hrs. In general terms: ELISA stands for enzyme-linked immunosorbent assay.
The target in data set [2] is T1, High affinity nerve growth factor receptor (Homo sapiens, UniProt P04629). Put plainly: Binding affinity to Fc-tagged human TrkA extracellular domain by SPR method.
T1 sequence (P04629 whole entry, the tested form may be a part): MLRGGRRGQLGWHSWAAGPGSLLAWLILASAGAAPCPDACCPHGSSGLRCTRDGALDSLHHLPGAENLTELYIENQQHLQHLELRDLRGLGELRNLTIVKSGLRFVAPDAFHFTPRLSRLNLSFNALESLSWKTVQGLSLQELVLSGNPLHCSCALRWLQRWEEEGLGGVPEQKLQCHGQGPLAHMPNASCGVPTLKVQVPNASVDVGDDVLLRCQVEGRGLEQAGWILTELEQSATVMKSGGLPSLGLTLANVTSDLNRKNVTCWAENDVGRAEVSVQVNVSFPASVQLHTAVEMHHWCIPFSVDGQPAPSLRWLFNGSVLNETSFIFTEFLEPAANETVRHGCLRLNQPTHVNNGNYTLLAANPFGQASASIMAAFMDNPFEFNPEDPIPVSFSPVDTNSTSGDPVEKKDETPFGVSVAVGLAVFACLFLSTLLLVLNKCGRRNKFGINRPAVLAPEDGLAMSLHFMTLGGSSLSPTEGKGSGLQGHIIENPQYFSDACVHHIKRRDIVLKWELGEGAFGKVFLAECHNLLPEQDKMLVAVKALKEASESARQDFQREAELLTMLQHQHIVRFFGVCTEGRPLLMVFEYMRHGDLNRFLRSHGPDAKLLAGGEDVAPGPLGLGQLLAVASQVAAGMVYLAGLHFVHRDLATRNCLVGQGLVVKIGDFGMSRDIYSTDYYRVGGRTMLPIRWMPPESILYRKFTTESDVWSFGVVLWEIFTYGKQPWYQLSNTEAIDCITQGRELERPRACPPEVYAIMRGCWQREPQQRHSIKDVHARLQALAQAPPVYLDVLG
Data set [3] can be described thus: Stability in human serum assessed as half-life incubated for 22 to 24 hrs by LC-MS/MS method. The class given is ADME, cell-free. To be noted: time 22-24 hrs.
Data set [4] deals with T1, High affinity nerve growth factor receptor. Put plainly: Inhibition of human TrkA assessed as beta-galactosidase activity pretreated with NGF followed by […] and measured after 180 mins by pathhunter assay.
A short description of data set [5]: Stability in rat serum assessed as half-life incubated for 22 to 24 hrs by LC-MS/MS method. The class given is ADME, cell-free. To be noted: time 22-24 hrs.
A short description of data set [6]: AUC in Sprague-Dawley rat at 1 umol/kg, iv administered as cassette dose measured upto 6 hrs by LC-MS/MS method. Format: ADME, organism-based. To be noted: in vivo, dose 1 µmol/kg.
A short description of data set [7]: Stability in human serum assessed as compound degradation incubated for 22 hrs by LC-MS/MS method. Format: ADME, cell-free.
Data set [8] is described as follows: Total clearance in Sprague-Dawley rat at 1 umol/kg, iv administered as cassette dose measured upto 6 hrs by LC-MS/MS method. The class given is ADME, organism-based. Conditions: in vivo, dose 1 µmol/kg.
In data set [9] the test system is Rattus norvegicus. Put plainly: Analgesic activity in rat Brennan's incision pain model assessed as reduction in pain at 30 mg/kg, iv administered 3 times at every 2 hrs and measured after 6 hrs. The class given is functional. Details: scale not given: the % may be the effect or the level left.
Data set [10] is described as follows: Toxicity in rat at 30 mg/kg, iv administered 3 times at every 2 hrs and measured after 6 hrs. The class given is organism-based. Conditions: in vivo.
The subject of data set [11] is Rattus norvegicus. Put plainly: Analgesic activity in rat Brennan's incision pain model assessed as reduction in pain at 10 mg/kg, iv administered 3 times at every 2 hrs and measured after 6 hrs. The class given is functional, organism-based.
For data set [12], the system named is Rattus norvegicus. Put plainly: Analgesic activity in iv dosed rat Brennan's incision pain model assessed as reduction in pain administered 3 times at every 2 hrs and measured after 6 hrs. Format: functional, organism-based. To be noted: dose 3-30 mg/kg.
Data set [13] can be described thus: as §1.

Usually Kd stands for the equilibrium constant for the complex coming apart. The term half-life denotes the time needed for the level to fall by half in the phase considered. By IC50 is commonly meant the concentration needed to halve the response being measured. One may read the AUC as concentration integrated over time. Broadly, the clearance is the rate of elimination divided by the concentration.

The source made the active and inactive calls. Bridge positions count the residues as written; N and C are the ends. Square brackets hold non-standard residues; d marks the D form. Peptide text beside a SMILES is read from it. NMeF = CN[C@@H](Cc1ccccc1)C(=O)O; Sar = CNCC(=O)O Where only a bound is given, the exact number is not on record here.

Take `CN1CC[C@]23c4c5ccc(O)c4O[C@H]2[C@@H](O)C=C[C@H]3[C@H]1C5`: the Activity entry in the data set with Rattus norvegicus [1] was “Dose-dependent-effect”.
`CC[C@H](C)[C@@H]1NC(=O)CNC(=O)[C@H](Cc2ccc(O)cc2)NC(=O)[C@H](Cc2ccccc2)NC(=O)CNC(=O)[C@H](Cc2c[nH]cn2)NC(=O)[C@@H]2CCCN2C(=O)[C@H](Cc2ccc(O)cc2)NC(=O)[C@H](CC(C)C)NC(=O)[C@H](Cc2ccccc2)NC(=O)[C@H](Cc2ccccc2)NC(=O)CSC[C@@H](C(=O)NCC(N)=O)NC(=O)[C@H](C(C)C)NC1=O` ({CH2CO}-FFLYPHGFYGIVCG-NH2; thioether N-13): the inhibition result in the data set filed under Homo sapiens was “inactive”. In data set [2], this compound yielded a Kd of 8.5 nM.
Take `CC(C)C[C@@H]1NC(=O)[C@H](CCCNC(=N)N)NC(=O)CNC(=O)[C@H](Cc2ccccc2)N(C)C(=O)CNC(=O)[C@H](Cc2c[nH]c3ccccc23)NC(=O)[C@H](Cc2ccc(O)cc2)NC(=O)[C@H](CCC(=O)O)NC(=O)[C@H](C(C)C)NC(=O)[C@H](CO)NC(=O)[C@H](CCCCN)NC(=O)[C@H](Cc2ccccc2)NC(=O)CSC[C@@H](C(=O)N(C)CC(N)=O)NC(=O)[C@H](Cc2c[nH]cn2)NC(=O)[C@H](CC(=O)O)NC(=O)[C@H](Cc2ccc(O)cc2)NC(=O)[C@H](Cc2ccc(O)cc2)NC(=O)[C@H](CCCCN)NC1=O` ({CH2CO}-FKSVEYWG[NMeF]GRLKYYDHC[Sar]-NH2; thioether N-18): the half-life in [3] was 2.5 h; in data set [5] it was 32 h. The IC50 in [4] was 35 nM.
For the compound `CC(C)C[C@@H]1NC(=O)[C@H](CCCNC(=N)N)NC(=O)CNC(=O)[C@H](Cc2ccccc2)N(C)C(=O)CNC(=O)[C@H](Cc2c[nH]c3ccccc23)NC(=O)[C@H](Cc2ccc(O)cc2)NC(=O)[C@H](CO)NC(=O)[C@H](C(C)C)NC(=O)[C@H](CO)NC(=O)[C@H](CCCCN)NC(=O)[C@H](Cc2ccccc2)NC(=O)CSC[C@@H](C(=O)N(C)CC(N)=O)NC(=O)[C@H](Cc2c[nH]cn2)NC(=O)[C@H](CC(N)=O)NC(=O)[C@H](Cc2ccc(O)cc2)NC(=O)[C@H](Cc2ccc(O)cc2)NC(=O)[C@H](CCCCN)NC1=O` ({CH2CO}-FKSVSYWG[NMeF]GRLKYYNHC[Sar]-NH2; thioether N-18), the results for the half-life in [3] and in data set [5] were 2.9 h and 4.5 h, respectively. Also, the IC50 in data set [4] amounted to 22 nM.
`CC(C)C[C@@H]1NC(=O)[C@H](CCCNC(=N)N)NC(=O)CNC(=O)[C@H](Cc2ccccc2)N(C)C(=O)CNC(=O)[C@H](Cc2c[nH]c3ccccc23)NC(=O)[C@H](Cc2ccc(O)cc2)NC(=O)[C@H](CO)NC(=O)[C@H](C(C)C)NC(=O)[C@H](CO)NC(=O)[C@H](CCCCN)NC(=O)[C@H](Cc2ccccc2)NC(=O)CSC[C@@H](C(=O)N(C)CC(N)=O)NC(=O)[C@H](Cc2c[nH]cn2)NC(=O)[C@H](CC(N)=O)NC(=O)[C@H](Cc2ccc(O)cc2)NC(=O)[C@H](Cc2ccc(O)cc2)NC(=O)[C@H](CO)NC1=O` ({CH2CO}-FKSVSYWG[NMeF]GRLSYYNHC[Sar]-NH2; thioether N-18): the IC50 in [4] turned out to be 23 nM. In data set [6], this compound came in with an AUC at 6 h of 0.305 µM·h. In data set [5], the half-life is 11.3 h. Also, the Stability result in data set [7] is recorded as “Unstable”. In [8], this compound had a clearance of 66.2 mL/min/kg.
With `CC(C)C[C@@H]1NC(=O)[C@H](C(C)C)NC(=O)CNC(=O)[C@H](Cc2ccccc2)N(C)C(=O)CNC(=O)[C@H](Cc2c[nH]cn2)NC(=O)[C@H](Cc2ccc(O)cc2)NC(=O)[C@H](CCC(=O)O)NC(=O)[C@H](C(C)C)NC(=O)[C@H](CO)NC(=O)[C@H](CO)NC(=O)[C@H](Cc2ccccc2)NC(=O)CSC[C@@H](C(=O)NCC(N)=O)NC(=O)[C@H](Cc2c[nH]cn2)NC(=O)[C@H](CC(=O)O)NC(=O)[C@H](Cc2ccc(O)cc2)NC(=O)[C@H](Cc2c[nH]c3ccccc23)NC(=O)[C@H](C(C)C)NC1=O` ({CH2CO}-FSSVEYHG[NMeF]GVLVWYDHCG-NH2; thioether N-18), the half-life in [3] and in data set [5] was greater than 72 h in each case. The Activity was 40% with Rattus norvegicus [9], “Non-toxic” in data set [10], “Active; Activity Comparable To 1 Mg/Kg Morphine” with Rattus norvegicus [11] and “Dose-dependent-effect” in the data set on Rattus norvegicus [12]. Further, the IC50 in [4] is 21 nM. This compound also displayed an AUC at 6 h in [6] of 1.2 µM·h. The compound further came in with a clearance in data set [8] of 13.9 mL/min/kg.
As to `CC[C@H](C)[C@@H]1NC(=O)CNC(=O)[C@H](Cc2ccccc2)N(C)C(=O)CNC(=O)[C@H](Cc2c[nH]c3ccccc23)NC(=O)[C@H](Cc2ccc(O)cc2)NC(=O)[C@H](CCC(=O)O)NC(=O)[C@H](C(C)C)NC(=O)[C@H](CO)NC(=O)[C@H](CO)NC(=O)[C@H](Cc2ccccc2)NC(=O)CSC[C@@H](C(=O)NCC(N)=O)NC(=O)[C@H](Cc2cnc[nH]2)NC(=O)[C@H](CC(=O)O)NC(=O)[C@H](Cc2ccc(O)cc2)NC(=O)[C@H](Cc2c[nH]c3ccccc23)NC(=O)[C@H](CCC(=O)O)NC(=O)[C@H](CC(C)C)NC1=O` ({CH2CO}-FSSVEYWG[NMeF]GILEWYDHCG-NH2; thioether N-18), the half-life in data set [3] and in data set [5] was greater than 72 h in each case. For the same compound, the IC50 in data set [4] was 34 nM. The same compound had an AUC at 6 h in [6] of 0.786 µM·h. The compound also showed a clearance in [8] of 21.3 mL/min/kg.
On to `CC(C)C[C@@H]1NC(=O)[C@H](CC(N)=O)NC(=O)CNC(=O)[C@H](Cc2ccccc2)N(C)C(=O)CNC(=O)[C@H](Cc2c[nH]c3ccccc23)NC(=O)[C@H](Cc2ccc(O)cc2)NC(=O)[C@H](CO)NC(=O)[C@H](C(C)C)NC(=O)[C@H](CO)NC(=O)[C@H](CO)NC(=O)[C@H](Cc2ccccc2)NC(=O)CSC[C@@H](C(=O)NCC(N)=O)NC(=O)[C@H](Cc2c[nH]cn2)NC(=O)[C@H](CO)NC(=O)[C@H](Cc2ccc(O)cc2)NC(=O)[C@H](Cc2c[nH]c3ccccc23)NC(=O)[C@H](C(C)C)NC1=O` ({CH2CO}-FSSVSYWG[NMeF]GNLVWYSHCG-NH2; thioether N-18), for which the half-life in data set [3] was 9.3 h; in data set [5], 47.8 h. The IC50 in data set [13] stood at 10.8 nM; in [4] it was 425 nM. The compound further returned a Kd in [2] of 15.9 nM.

The values are drawn from ChEMBL document CHEMBL6083183, “Discovery and Hit to Lead Optimization of Macrocyclic Peptides as Novel Tropomyosin Receptor Kinase A Antagonists” (J Med Chem, 2024).
